# Measurements: article PMC9533837 (Antiviral Research, 2003)
# Entries after “also recorded” stand apart in the source; their conditions may differ. Read-outs that look alike come from different tables or passages of the source.
# Experiments:
# [1] = system: VAR-YAM (1946 Japan Yamada isolate of VAR major); experiment: organism not typed; type: cell-based, variola major; settings: for IC50: Vero, read-out: IC50 VAR-YAM Vero
# [2] = system: VAR-YAM (1946 Japan Yamada isolate of VAR major); experiment: organism not typed; type: cell-based, variola major; settings: for IC50: LLC-MK2, read-out: IC50 VAR-YAM LLC-MK2
# [3] = system: VAR-BSH (1975 Bangladesh isolate of VAR major); experiment: organism not typed; type: cell-based, variola major; settings: for IC50: LLC-MK2, read-out: IC50 VAR-BSH LLC-MK2
# [4] = system: CPX; parameters: species or system mice; settings: mouse, in vivo
# [5] = system: MPX Zaire (V79-1-005-Scab); experiment: organism not typed; type: cell-based, monkeypox; settings: for IC50: LLC-MK2, read-out: IC50 MPX LLC-MK2
# [6] = system: VAC Copenhagen; experiment: microbe, parasite or virus in culture; type: cell-based, vaccinia virus; settings: for IC50: Orthopoxvirus vaccinia, LLC-MK2, read-out: IC50 VAC LLC-MK2
# [7] = system: MPX Zaire (V79-1-005-Scab); experiment: organism not typed; type: cell-based, monkeypox; settings: for IC50: Vero, read-out: IC50 MPX Vero
# [8] = system: LLC-MK2 cells
# [9] = system: CPX Brighton; experiment: organism not typed; type: cell-based, cowpox; settings: for IC50: Vero, read-out: IC50 CPX Vero
# [10] = system: VAC Copenhagen; experiment: microbe, parasite or virus in culture; type: cell-based, vaccinia virus; settings: for IC50: Orthopoxvirus vaccinia, Vero, read-out: IC50 VAC Vero
# [11] = system: VAR-GAR (1966 Brazil Garcia isolate of VAR minor); experiment: organism not typed; type: cell-based, variola minor; settings: for IC50: LLC-MK2, read-out: IC50 VAR-GAR LLC-MK2
# [12] = system: VAR-BSH (1975 Bangladesh isolate of VAR major); experiment: organism not typed; type: cell-based, variola major; settings: for IC50: Vero, read-out: IC50 VAR-BSH Vero
# [13] = system: VAC; parameters: species or system mice; settings: mouse, in vivo
# [14] = system: Vero cells
# [15] = system: CPX Brighton; experiment: organism not typed; type: cell-based, cowpox; settings: for IC50: LLC-MK2, read-out: IC50 CPX LLC-MK2
# [16] = system: VAR-GAR (1966 Brazil Garcia isolate of VAR minor); experiment: organism not typed; type: cell-based, variola minor; settings: for IC50: Vero, read-out: IC50 VAR-GAR Vero
# [17] = system: orthopoxviruses (VAR-BSH, VAR-YAM, VAR-GAR, MPX, CPX, VAC); experiment: organism not typed; type: cell-based
# [18] = system: VAC; settings: cited from earlier work
structure (smiles),measurement,setting,value
"Nc1nccc2c1ncn2[C@@H]1C[C@@H](CO)[C@H](O)[C@@H]1O [C-ca3-Ado, Carbocyclic 3-deazaadenosine]",IC50 VAR-YAM Vero,[1],5.3 µg/mL
same,Therapeutic index (TI) VAR-YAM Vero,[1],18.9
same,IC50 VAR-YAM LLC-MK2,[2],1.4 µg/mL
same,Therapeutic index (TI) VAR-YAM LLC-MK2,[2],71.4
same,IC50 VAR-BSH LLC-MK2,[3],1.6 µg/mL
same,Therapeutic index (TI) VAR-BSH LLC-MK2,[3],62.5
same,protective effect on CPX-infected mice,[4],modest protective effect
same,IC50 MPX LLC-MK2,[5],0.8 µg/mL
same,Therapeutic index (TI) MPX LLC-MK2,[5],125
same,IC50 VAC LLC-MK2,[6],3.4 µg/mL
same,Therapeutic index (TI) VAC LLC-MK2,[6],29.4
same,IC50 MPX Vero,[7],0.4 µg/mL
same,Therapeutic index (TI) MPX Vero,[7],250
same,Cytotoxicity TC50 LLC-MK2,[8],>100 µg/mL
same,IC50 CPX Vero,[9],>100 µg/mL
same,Therapeutic index (TI) CPX Vero,[9],1.0
same,IC50 VAC Vero,[10],1.2 µg/mL
same,Therapeutic index (TI) VAC Vero,[10],83.3
same,IC50 VAR-GAR LLC-MK2,[11],4.4 µg/mL
same,Therapeutic index (TI) VAR-GAR LLC-MK2,[11],22.7
same,IC50 VAR-BSH Vero,[12],1.2 µg/mL
same,Therapeutic index (TI) VAR-BSH Vero,[12],83.3
same,protective effect on VAC-infected mice,[13],modest protective effect
same,Cytotoxicity TC50 Vero,[14],>100 µg/mL
same,IC50 CPX LLC-MK2,[15],25.2 µg/mL
same,Therapeutic index (TI) CPX LLC-MK2,[15],4.0
same,IC50 VAR-GAR Vero,[16],1.6 µg/mL
same,Therapeutic index (TI) VAR-GAR Vero,[16],62.5
"CN1C(=O)/C(=N\NC(N)=S)c2ccccc21 [Methisazone, methisazone]",Therapeutic index (TI) VAR-YAM Vero,[1],2.6
same,IC50,[1],39 µg/mL
same,Therapeutic index (TI) VAR-YAM LLC-MK2,[2],2.3
same,IC50,[2],43.3 µg/mL
same,Therapeutic index (TI) VAR-BSH LLC-MK2,[3],2.4
same,IC50,[3],41.2 µg/mL
same,Therapeutic index (TI) MPX LLC-MK2,[5],1.2
same,IC50,[5],80.4 µg/mL
same,Therapeutic index (TI) VAC LLC-MK2,[6],1.9
same,IC50,[6],52 µg/mL
same,Therapeutic index (TI) MPX Vero,[7],1.5
same,IC50,[7],66.2 µg/mL
same,Cytotoxicity TC50 LLC-MK2,[8]; rhesus monkey,>100 µg/mL
same,Therapeutic index (TI) CPX Vero,[9],2.0
same,IC50,[9],49.2 µg/mL
same,Therapeutic index (TI) VAC Vero,[10],2.2
same,IC50,[10],45.8 µg/mL
same,Therapeutic index (TI) VAR-GAR LLC-MK2,[11],2.3
same,IC50,[11],44.1 µg/mL
same,Therapeutic index (TI) VAR-BSH Vero,[12],3.0
same,IC50,[12],34.6 µg/mL
same,Cytotoxicity TC50 Vero,[14]; African green monkey,>100 µg/mL
same,Therapeutic index (TI) CPX LLC-MK2,[15],2.2
same,IC50,[15],45.2 µg/mL
same,Therapeutic index (TI) VAR-GAR Vero,[16],4.6
same,IC50,[16],21.6 µg/mL
"NC(=O)c1csc([C@@H]2O[C@H](CO)[C@@H](O)[C@H]2O)n1 [Tiazofurin, 2-β-D-ribofuranosylthiazole-4-carboxamide]",Therapeutic index (TI) VAR-YAM Vero,[1],4.2
same,IC50,[1],21.4 µg/mL
same,Therapeutic index (TI) VAR-YAM LLC-MK2,[2],25.6
same,IC50,[2],3.9 µg/mL
same,Therapeutic index (TI) VAR-BSH LLC-MK2,[3],18.2
same,IC50,[3],5.5 µg/mL
same,Therapeutic index (TI) MPX LLC-MK2,[5],19.2
same,IC50,[5],5.2 µg/mL
same,Therapeutic index (TI) VAC LLC-MK2,[6],3.0
same,IC50,[6],33.3 µg/mL
same,Therapeutic index (TI) MPX Vero,[7],4.5
same,IC50,[7],20 µg/mL
same,Cytotoxicity TC50 LLC-MK2,[8]; rhesus monkey,>100 µg/mL
same,IC50,"[17]; LLC-MK2, read-out: mean IC50 on LLC-MK2 cells",10.8 ± 4.6 µg/mL
same,IC50,"[17]; Vero, read-out: mean IC50 on Vero cells",36.4 ± 12.9 µg/mL
same,Therapeutic index (TI) CPX Vero,[9],2.6
same,IC50,[9],34.6 µg/mL
same,Therapeutic index (TI) VAC Vero,[10],1.0
same,IC50,[10],> 100 µg/mL
same,Therapeutic index (TI) VAR-GAR LLC-MK2,[11],16.4
same,IC50,[11],6.1 µg/mL
same,Therapeutic index (TI) VAR-BSH Vero,[12],4.0
same,IC50,[12],22.6 µg/mL
same,Cytotoxicity TC50 Vero,[14]; African green monkey,90.0 µg/mL
same,Therapeutic index (TI) CPX LLC-MK2,[15],9.1
same,IC50,[15],11 µg/mL
same,Therapeutic index (TI) VAR-GAR Vero,[16],4.5
same,IC50,[16],19.8 µg/mL
"Nc1ccn([C@H]2CC[C@@H](CO)O2)c(=O)n1 [ddC, zalcitabine]",inhibitory activity against the orthopoxviruses tested (in words),[17],"No other test compounds of this group (acyclovir, brovavir, lobucavir, didanosine, ddC, or d4C) showed any activity"
"Nc1c2ncn([C@@H]3O[C@H](CO)[C@@H](O)[C@H]3O)c2nc[n+]1[O-] [ANO, Adenosine N1-oxide]",inhibitory activity against the orthopoxviruses tested (in words),[17],little activity
same,inhibition of VAC virus replication in vitro,[18],inhibits VAC virus replication in vitro
O=c1[nH]cnc2c1ncn2[C@H]1CC[C@@H](CO)O1 [didanosine],inhibitory activity against the orthopoxviruses tested (in words),[17],"No other test compounds of this group (acyclovir, brovavir, lobucavir, didanosine, ddC, or d4C) showed any activity"
"Nc1ccn([C@H]2C=C[C@@H](CO)O2)c(=O)n1 [d4C, 2′,3′-dideoxydidehydrocytidine]",inhibitory activity against the orthopoxviruses tested (in words),[17],"No other test compounds of this group (acyclovir, brovavir, lobucavir, didanosine, ddC, or d4C) showed any activity"
O=C1Nc2ccc(Cl)cc2[C@@](C#CC2CC2)(C(F)(F)F)O1 [efavirenz],inhibitory activity against the orthopoxviruses tested (in words),[17],inactive
Cc1cn([C@H]2C[C@H](N=[N+]=[N-])[C@@H](CO)O2)c(=O)[nH]c1=O [zidovudine],inhibitory activity against the orthopoxviruses tested (in words),[17],inactive
"CC(C)c1nc(CN(C)C(=O)N[C@H](C(=O)N[C@@H](Cc2ccccc2)C[C@H](O)[C@H](Cc2ccccc2)NC(=O)OCc2cncs2)C(C)C)cs1 [ritonavir, Ritonavir]",inhibitory activity against the orthopoxviruses tested (in words),[17],inactive
"NC(=O)NO [Hydroxyurea, hydroxyurea]",inhibitory activity against the orthopoxviruses tested (in words),[17],inactive
"O=c1[nH]c(=O)n([C@@H]2O[C@H](CO)[C@@H](O)[C@@H]2O)cc1/C=C/Br [brovavir, Brovavir]",inhibitory activity against the orthopoxviruses tested (in words),[17],"No other test compounds of this group (acyclovir, brovavir, lobucavir, didanosine, ddC, or d4C) showed any activity; also recorded: failed to inhibit orthopoxvirus replication"
"Nc1ncnc2c1ncn2CCOCP(=O)(O)O [PMEA, 9-[2-(phosphonomethoxy)ethyl]adenine]",inhibitory activity against the orthopoxviruses tested (in words),[17],Neither PMEA nor bis-POM-PMEA was effective
"Cc1c(O)cccc1C(=O)N[C@@H](CSc1ccccc1)[C@H](O)CN1C[C@H]2CCCC[C@H]2C[C@H]1C(=O)NC(C)(C)C [nelfinavir, Nelfinavir]",inhibitory activity against the orthopoxviruses tested (in words),[17],inactive
"Nc1nc2c(ncn2COCCO)c(=O)[nH]1 [acyclovir, Acyclovir]",inhibitory activity against the orthopoxviruses tested (in words),[17],"No other test compounds of this group (acyclovir, brovavir, lobucavir, didanosine, ddC, or d4C) showed any activity; also recorded: failed to inhibit orthopoxvirus replication"
"Nc1nc(=O)c2ncn([C@@H]3C[C@H](CO)[C@H]3CO)c2[nH]1 [lobucavir, [1R(1α,2β,3α)]-9-[2,3-bis(hydroxymethyl)cyclobutyl]guanine]",inhibitory activity against the orthopoxviruses tested (in words),[17],"No other test compounds of this group (acyclovir, brovavir, lobucavir, didanosine, ddC, or d4C) showed any activity; also recorded: failed to inhibit orthopoxvirus replication"
Cc1cn([C@H]2C=C[C@@H](CO)O2)c(=O)[nH]c1=O [stavudine],inhibitory activity against the orthopoxviruses tested (in words),[17],inactive
"Nc1ncnc2c1ncn2C[C@@H](CO)OCP(=O)(O)O [HPMPA, (S)-9-(3-hydroxy-2-phosphonylmethoxypropyl)adenine]",IC50 VAR-YAM Vero,[1],11.4 µg/mL
same,Therapeutic index (TI) VAR-YAM Vero,[1],8.8
same,IC50 VAR-YAM LLC-MK2,[2],6.8 µg/mL
same,Therapeutic index (TI) VAR-YAM LLC-MK2,[2],14.7
same,IC50 VAR-BSH LLC-MK2,[3],6.1 µg/mL
same,Therapeutic index (TI) VAR-BSH LLC-MK2,[3],16.4
same,IC50 MPX LLC-MK2,[5],9.2 µg/mL
same,Therapeutic index (TI) MPX LLC-MK2,[5],10.9
same,IC50 VAC LLC-MK2,[6],8.0 µg/mL
same,Therapeutic index (TI) VAC LLC-MK2,[6],12.5
same,IC50 MPX Vero,[7],10.9 µg/mL
same,Therapeutic index (TI) MPX Vero,[7],9.2
same,Cytotoxicity TC50 LLC-MK2,[8],>100 µg/mL
same,TI against the panel of viruses,[17],11.9
same,mean IC50 against the panel of viruses,[17],8.4 ± 0.67 µg/mL
same,IC50 CPX Vero,[9],8.4 µg/mL
same,Therapeutic index (TI) CPX Vero,[9],11.9
same,IC50 VAC Vero,[10],8.1 µg/mL
same,Therapeutic index (TI) VAC Vero,[10],12.3
same,IC50 VAR-GAR LLC-MK2,[11],4.6 µg/mL
same,Therapeutic index (TI) VAR-GAR LLC-MK2,[11],21.7
same,IC50 VAR-BSH Vero,[12],12.6 µg/mL
same,Therapeutic index (TI) VAR-BSH Vero,[12],7.9
same,Cytotoxicity TC50 Vero,[14],>100 µg/mL
same,inhibition of VAC replication in vitro,[18],inhibit VAC replication in vitro
same,IC50 CPX LLC-MK2,[15],7.7 µg/mL
same,Therapeutic index (TI) CPX LLC-MK2,[15],13.0
same,IC50 VAR-GAR Vero,[16],6.6 µg/mL
same,Therapeutic index (TI) VAR-GAR Vero,[16],15.2
"CC(C)(C)NC(=O)[C@@H]1C[C@@H]2CCCC[C@@H]2CN1C[C@@H](O)[C@H](Cc1ccccc1)NC(=O)[C@H](CC(N)=O)NC(=O)c1ccc2ccccc2n1 [saquinavir, Saquinavir]",inhibitory activity against the orthopoxviruses tested (in words),[17],inactive
